Measured values as given in patent US9365621B2, “Method for preventing neoplastic transformation by inhibition of retinoblastoma protein inactivation” (The Regents of the University of California, priority 2012, dated 2016).
No end group written: not given here.

Biological target: T1, human Rb construct (residues 53-787) binding Human E2F1 transactivation domain (Homo sapiens, UniProt P06400, DEL245-267/DEL582-642/S780A)
T1 construct: a human Rb construct (residues 53-787, delta245-267, delta582-642, S780A); made in house; host or cells: E. coli
T1 sequence (P06400 with tags, fused parts or gaps DEL245-267/DEL582-642/S780A): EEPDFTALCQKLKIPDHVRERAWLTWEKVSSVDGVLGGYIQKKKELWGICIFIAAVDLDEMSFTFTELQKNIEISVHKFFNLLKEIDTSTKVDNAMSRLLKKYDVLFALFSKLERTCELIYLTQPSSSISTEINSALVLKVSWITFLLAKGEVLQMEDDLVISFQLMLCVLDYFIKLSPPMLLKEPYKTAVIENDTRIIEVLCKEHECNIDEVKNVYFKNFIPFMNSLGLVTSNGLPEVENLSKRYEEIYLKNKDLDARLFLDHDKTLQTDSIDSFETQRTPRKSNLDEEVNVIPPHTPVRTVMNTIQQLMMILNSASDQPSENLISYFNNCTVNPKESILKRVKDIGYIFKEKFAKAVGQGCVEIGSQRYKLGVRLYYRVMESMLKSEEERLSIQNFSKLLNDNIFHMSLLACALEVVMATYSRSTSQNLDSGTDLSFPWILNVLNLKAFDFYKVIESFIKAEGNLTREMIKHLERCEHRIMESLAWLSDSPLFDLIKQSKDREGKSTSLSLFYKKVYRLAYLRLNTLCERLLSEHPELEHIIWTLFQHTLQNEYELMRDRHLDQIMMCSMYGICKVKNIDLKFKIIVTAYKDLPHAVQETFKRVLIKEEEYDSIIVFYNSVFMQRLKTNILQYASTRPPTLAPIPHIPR
Assay: Isothermal titration calorimetry of E2F binding to Rb (Rb activity)
Settings: in vitro, phosphorylated Rb
From the text: The inventors have developed an assay for measuring the degree of binding between Rb and E2F. Rb inactivation corresponds to E2F binding inhibition. If you can prevent E2F binding to Rb, then you inactivate Rb, its tumor suppressing action decreases and the cell cycle continues from G1 to S and unregulated cell division occurs. Inactivation occurs upon Rb phosphorylation by Cdk. The inventors have discovered that in the presence of ‘LxCxE’ peptide, E2F inhibition is prevented upon phosphorylation.
The […] peptide was made synthetically using standard peptide synthesis. Human E2F1 transactivation domain (residues […]) and a human Rb construct (residues 53-787, delta245-267, delta582-642, S780A) were produced recombinantly in E. coli and purified to homogeneity. Rb was phosphorylated with recombinant Cdk as described.
Rb activity, defined as its ability to bind E2F, was assayed by isothermal titration calorimetry to measure quantitatively E2F binding affinity. About 50 micromolar (μm) Rb was used in the calorimetry cell and E2F was titrated in at a concentration of ˜1 mM. Standard protocols were used to determine Kd. In the experiment with the […] peptide, the peptide was first added to the cell before E2F to saturate Rb.

DLYCYEQLN [DLYCYEQLN peptide, DLYCYEQLN]
inhibition of Rb inactivation (effect of phosphorylation on E2F-Rb binding): inhibits the weakening effect of phosphorylation on E2F-Rb binding
